Measurements published in patent US9802941B2, “Compounds and methods for inhibiting histone demethylases” (Gilead Sciences, Inc., priority 2014, dated 2017).
pIC50: −log10 of the molar value. Read-outs that look alike come from different tables or passages of the source.

How the values were obtained:
Format in all cases: biochemical
KDM2B (FBXL10) = molecular target: T1, KDM2B (FBXL10) (Homo sapiens, UniProt Q8NHM5); test: Histone lysine demethylase AlphaLISA assay, KDM2B
T1 construct: KDM2B; BPS,; 1-650; Bac; purchased BPS Bioscience, US; host or cells: baculovirus system
T1 sequence (Q8NHM5 1-650): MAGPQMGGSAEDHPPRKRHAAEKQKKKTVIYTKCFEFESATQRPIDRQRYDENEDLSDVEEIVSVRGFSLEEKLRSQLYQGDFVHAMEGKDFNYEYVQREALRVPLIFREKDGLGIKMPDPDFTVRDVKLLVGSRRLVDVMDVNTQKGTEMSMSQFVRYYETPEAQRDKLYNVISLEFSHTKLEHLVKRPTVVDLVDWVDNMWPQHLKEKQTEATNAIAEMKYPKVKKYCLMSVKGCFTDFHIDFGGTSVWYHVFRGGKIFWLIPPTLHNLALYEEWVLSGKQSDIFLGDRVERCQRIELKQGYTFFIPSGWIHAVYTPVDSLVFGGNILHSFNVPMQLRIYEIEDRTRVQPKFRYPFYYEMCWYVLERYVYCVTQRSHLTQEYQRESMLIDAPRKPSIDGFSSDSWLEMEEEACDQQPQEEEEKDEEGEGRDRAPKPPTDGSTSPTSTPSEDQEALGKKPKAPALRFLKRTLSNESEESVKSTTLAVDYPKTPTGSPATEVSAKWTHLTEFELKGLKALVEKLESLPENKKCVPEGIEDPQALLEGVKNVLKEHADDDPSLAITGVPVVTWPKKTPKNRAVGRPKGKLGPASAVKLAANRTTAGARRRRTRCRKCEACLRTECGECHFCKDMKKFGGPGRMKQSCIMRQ
How it was run: (§1)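 Compounds preincubated 10 min with each demethylase in Hepes buffer (pH 7.4-8.0) containing Tween-20, 0.1% BSA and 5 μM Fe(II); substrate then added, room-temperature reaction. Read-out by AlphaLISA acceptor and streptavidin donor beads after incubation in the dark.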

KDM4C (JMJD2C) = molecular target: T2, KDM4C (JMJD2C) (Homo sapiens, UniProt Q9H3R0); test: Histone lysine demethylase AlphaLISA assay, KDM4C
T2 construct: KDM4C; BRIC, Denmark; 1-349; E. coli; host or cells: E. coli
T2 sequence (Q9H3R0 1-349): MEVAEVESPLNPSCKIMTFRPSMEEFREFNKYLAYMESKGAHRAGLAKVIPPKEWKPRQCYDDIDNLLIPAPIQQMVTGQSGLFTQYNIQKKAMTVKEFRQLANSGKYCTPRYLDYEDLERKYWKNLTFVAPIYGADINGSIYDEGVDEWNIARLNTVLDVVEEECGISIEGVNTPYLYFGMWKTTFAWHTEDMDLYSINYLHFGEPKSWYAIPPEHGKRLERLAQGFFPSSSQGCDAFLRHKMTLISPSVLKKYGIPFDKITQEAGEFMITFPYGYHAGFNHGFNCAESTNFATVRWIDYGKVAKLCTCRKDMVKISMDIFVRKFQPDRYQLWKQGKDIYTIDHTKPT
How it was run: as §1

PHF8 (KDM7) = molecular target: T3, PHF8 (KDM7) (Homo sapiens, UniProt Q9UPP1); test: Histone lysine demethylase AlphaLISA assay, PHF8
T3 construct: KDM7 (PHF8); BRIC; 1-1322; Bac
T3 sequence (Q9UPP1 37-440 limits assumed): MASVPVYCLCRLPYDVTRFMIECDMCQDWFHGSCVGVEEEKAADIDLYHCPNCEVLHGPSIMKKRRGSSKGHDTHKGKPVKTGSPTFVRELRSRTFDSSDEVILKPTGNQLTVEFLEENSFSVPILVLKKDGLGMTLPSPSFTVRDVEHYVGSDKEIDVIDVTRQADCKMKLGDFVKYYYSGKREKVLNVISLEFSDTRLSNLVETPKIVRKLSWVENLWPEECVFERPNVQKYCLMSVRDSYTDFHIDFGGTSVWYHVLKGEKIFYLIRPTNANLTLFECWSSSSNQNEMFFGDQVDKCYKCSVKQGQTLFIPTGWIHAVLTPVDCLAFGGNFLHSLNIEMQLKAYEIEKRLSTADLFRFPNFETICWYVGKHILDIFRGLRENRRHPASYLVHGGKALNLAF
How it was run: as §1

KDM5B (PLU-1) = molecular target: T4, KDM5B (PLU-1) (Homo sapiens, UniProt Q9UGL1); test: Histone lysine demethylase AlphaLISA assay, KDM5B
T4 construct: BRIC; 1-809; E. coli; host or cells: E. coli
T4 sequence (Q9UGL1 1-809): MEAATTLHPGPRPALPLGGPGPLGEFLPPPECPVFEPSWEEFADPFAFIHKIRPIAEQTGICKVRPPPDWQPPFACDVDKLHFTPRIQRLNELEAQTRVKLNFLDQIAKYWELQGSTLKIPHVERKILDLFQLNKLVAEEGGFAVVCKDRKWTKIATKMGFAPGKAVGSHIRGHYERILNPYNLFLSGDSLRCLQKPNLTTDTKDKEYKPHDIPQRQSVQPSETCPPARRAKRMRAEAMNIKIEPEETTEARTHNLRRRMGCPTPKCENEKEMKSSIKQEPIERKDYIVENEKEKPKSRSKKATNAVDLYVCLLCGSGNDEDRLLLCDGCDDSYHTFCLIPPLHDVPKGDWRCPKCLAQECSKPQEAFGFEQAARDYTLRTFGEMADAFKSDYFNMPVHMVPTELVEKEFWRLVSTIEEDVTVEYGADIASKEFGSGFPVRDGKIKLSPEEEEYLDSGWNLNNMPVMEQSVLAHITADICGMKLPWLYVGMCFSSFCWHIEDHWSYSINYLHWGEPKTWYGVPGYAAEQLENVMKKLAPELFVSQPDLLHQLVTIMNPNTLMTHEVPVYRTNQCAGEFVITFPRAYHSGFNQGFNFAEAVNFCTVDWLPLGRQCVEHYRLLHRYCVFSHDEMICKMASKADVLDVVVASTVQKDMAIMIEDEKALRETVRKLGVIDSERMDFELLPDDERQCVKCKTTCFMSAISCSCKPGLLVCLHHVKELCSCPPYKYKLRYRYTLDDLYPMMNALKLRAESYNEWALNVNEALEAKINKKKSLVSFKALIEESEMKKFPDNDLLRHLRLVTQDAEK
How it was run: as §1

[1] = AlphaLISA, in vitro, read-out: HDME Inhibition KDM2B
[2] = AlphaLISA, in vitro, read-out: HDME Inhibition KDM4C
[3] = AlphaLISA assay, read-out: HDME Inhibition PHF8 (IC50)
[4] = AlphaLISA, in vitro, read-out: HDME Inhibition PHF8
[5] = AlphaLISA, in vitro, read-out: HDME Inhibition KDM5B
[6] = AlphaLISA assay, read-out: HDME Inhibition KDM2B (IC50)
[7] = AlphaLISA assay, read-out: HDME Inhibition KDM4C (IC50)
[8] = AlphaLISA assay, read-out: HDME Inhibition KDM5B (IC50)

| Structure (SMILES) | pIC50 (KDM2B (FBXL10); [1]) | pIC50 (KDM4C (JMJD2C); [2]) | pIC50 (PHF8 (KDM7); [3]) | pIC50 (PHF8 (KDM7); [4]) | pIC50 (KDM5B (PLU-1); [5]) | pIC50 (KDM2B (FBXL10); [6]) | pIC50 (KDM4C (JMJD2C); [7]) | pIC50 (KDM5B (PLU-1)) | pIC50 (KDM5B (PLU-1); [8]) |
| --- | --- | --- | --- | --- | --- | --- | --- | --- | --- |
| CCN(CCN(C)C)C(=O)CNCc1cc(C(=O)O)cc(C)n1 [Compound 98, 2-{[({[2-(dimethylamino)ethyl](ethyl)carbamoyl}methyl)amino]methyl}-6-methylpyridine-4-carboxylic acid] | 6.28 | 5.78 | < 5.00 | < 5.00 | 8.10 | – | – | – | – |
| O=C(O)c1cc(CO)nc(CNCc2nnc(-c3ccccc3)n2CCCc2ccccc2)c1 [Compound 99, 2-(hydroxymethyl)-6-[({[5-phenyl-4-(3-phenylpropyl)-4H-1,2,4-triazol-3-yl]methyl}amino)methyl]pyridine-4-carboxylic acid] | < 5.00 | < 5.00 | < 5.00 | < 5.00 | – | < 5.00 | < 5.00 | 5.08 | – |
| CCc1cnc(CNCc2cc(C(=O)O)cc(CO)n2)n1Cc1ccc(F)cc1 [Compound 100, 2-{[({5-ethyl-1-[(4-fluorophenyl)methyl]-1H-imidazol-2-yl}methyl)amino]methyl}-6-(hydroxymethyl)pyridine-4-carboxylic acid] | 7.15 | < 5.00 | – | 5.94 | – | – | < 5.00 | 6.20 | – |
| CCOc1ccc(CC(C)C)c(CNCc2cc(C(=O)O)cc(CO)n2)n1 [Compound 101, 2-[({[6-ethoxy-3-(2-methylpropyl)pyridin-2-yl]methyl}amino)methyl]-6-(hydroxymethyl)pyridine-4-carboxylic acid] | 6.98 | < 5.00 | – | 5.88 | 5.21 | – | < 5.00 | – | – |
| CCN(CCN(C)C)C(=O)CNCc1cc(C(=O)O)cc(CO)n1 [Compound 102, 2-{[({[2-(dimethylamino)ethyl](ethyl)carbamoyl}methyl)amino]methyl}-6-(hydroxymethyl)pyridine-4-carboxylic acid] | 6.62 | 5.15 | < 5.00 | < 5.00 | 7.70 | – | – | – | – |
| C=C(C)c1cnc(CNCc2cc(C(=O)O)cc(C)n2)n1Cc1ccc(F)cc1 [Compound 103, 2-{[({1-[(4-fluorophenyl)methyl]-5-(prop-1-en-2-yl)-1H-imidazol-2-yl}methyl)amino]methyl}-6-methylpyridine-4-carboxylic acid] | 7.25 | < 5.00 | – | 6.80 | < 5.00 | – | < 5.00 | – | < 5.00 |
| CCc1cnc(CNCc2cc(C(=O)O)cc(C)n2)n1CCCc1ccccc1 [Compound 108, 2-[({[5-ethyl-1-(3-phenylpropyl)-1H-imidazol-2-yl]methyl}amino)methyl]-6-methylpyridine-4-carboxylic acid] | 6.88 | < 5.00 | – | 6.06 | < 5.00 | – | < 5.00 | – | < 5.00 |
| COc1ccc(O)c(CCNCc2cc(C(=O)O)cc(CO)n2)n1 [Compound 109, 2-({[2-(3-hydroxy-6-methoxypyridin-2-yl)ethyl]amino}methyl)-6-(hydroxymethyl)pyridine-4-carboxylic acid] | < 5.00 | < 5.00 | < 5.00 | < 5.00 | < 5.00 | < 5.00 | < 5.00 | – | < 5.00 |
| Cc1cc(C(=O)O)cc(CNCc2nnc3n2C(c2ccccc2)CNC3)n1 (centres unmarked) [Compound 113, 2-methyl-6-{[({5-phenyl-5H,6H,7H,8H-[1,2,4]triazolo[4,3-a]pyrazin-3-yl}methyl)amino]methyl}pyridine-4-carboxylic acid] | 5.55 | < 5.00 | < 5.00 | < 5.00 | < 5.00 | – | < 5.00 | – | < 5.00 |
| CCc1cnc(CNCc2cc(C(=O)O)cc(C)n2)n1Cc1cccs1 [Compound 115, 2-[({[5-ethyl-1-(thiophen-2-ylmethyl)-1H-imidazol-2-yl]methyl}amino)methyl]-6-methylpyridine-4-carboxylic acid] | 7.28 | < 5.00 | – | 6.30 | < 5.00 | – | < 5.00 | – | < 5.00 |

Next, values leading:

| pIC50 (KDM2B (FBXL10); [1]) | pIC50 (KDM4C (JMJD2C); [2]) | pIC50 (PHF8 (KDM7); [3]) | pIC50 (PHF8 (KDM7); [4]) | pIC50 (KDM5B (PLU-1); [5]) | pIC50 (KDM2B (FBXL10); [6]) | pIC50 (KDM4C (JMJD2C); [7]) | pIC50 (KDM5B (PLU-1)) | pIC50 (KDM5B (PLU-1); [8]) | Structure (SMILES) |
| --- | --- | --- | --- | --- | --- | --- | --- | --- | --- |
| 5.29 | < 5.00 | < 5.00 | < 5.00 | < 5.00 | – | < 5.00 | – | < 5.00 | COc1ccc(OCCc2ccccc2)c(CCNCc2cc(C(=O)O)cc(CO)n2)n1 [Compound 107, 2-(hydroxymethyl)-6-[({2-[6-methoxy-3-(2-phenylethoxy)pyridin-2-yl]ethyl}amino)methyl]pyridine-4-carboxylic acid] |
| < 5.00 | < 5.00 | < 5.00 | < 5.00 | < 5.00 | < 5.00 | < 5.00 | – | < 5.00 | NCc1cc(C(=O)O)cc(CN)n1 [Compound 110, 2,6-bis(aminomethyl)pyridine-4-carboxylic acid] |
| 6.08 | < 5.00 | – | 5.29 | – | – | < 5.00 | 5.97 | – | O=Cc1cn(Cc2ccc(F)cc2)c(CNCc2cc(C(=O)O)cc(CO)n2)n1 [Compound 111, 2-{[({1-[(4-fluorophenyl)methyl]-4-formyl-1H-imidazol-2-yl}methyl)amino]methyl}-6-(hydroxymethyl)pyridine-4-carboxylic acid] |
| 6.43 | < 5.00 | – | 5.45 | < 5.00 | – | < 5.00 | – | < 5.00 | CC#CCc1cnc(CNCc2cc(C(=O)O)cc(C)n2)n1Cc1ccc(F)cc1 [Compound 112, 2-[({[5-(but-2-yn-1-yl)-1-[(4-fluorophenyl)methyl]-1H-imidazol-2-yl]methyl}amino)methyl]-6-methylpyridine-4-carboxylic acid] |
| 6.50 | < 5.00 | – | 5.94 | < 5.00 | – | < 5.00 | – | < 5.00 | Cc1cc(C(=O)O)cc(CNCc2ncc(CCC(N)=O)n2Cc2ccc(F)cc2)n1 [Compound 114, 2-[({[5-(2-carbamoylethyl)-1-[(4-fluorophenyl)methyl]-1H-imidazol-2-yl]methyl}amino)methyl]-6-methylpyridine-4-carboxylic acid] |
